According to the NIST ThermoML archive (doi:10.1016/j.fluid.2013.06.028):
Numbers after ± are expanded uncertainties.

Experiment: activity coefficient (dimensionless); of the first substance listed, at infinite dilution; xn = mol fraction of the nth substance listed
Conditions: 298 K; Liquid; Chromatography; x1 = 0

Question: Which activity coefficient does the source give for c1ccccc1 [benzene] + OCCO here?
Answer: The activity coefficient was 32 ± 6.

Question: Which activity coefficient does the source give for Brc1ccccc1 [bromobenzene] + OCCO here?
Answer: The activity coefficient was 45 ± 10.

Question: With Clc1ccccc1 [chlorobenzene] + OCCO as the compound, how does the activity coefficient read?
Answer: The activity coefficient was 40 ± 8.

Question: Which activity coefficient does the source give for Fc1ccccc1 [fluorobenzene] + OCCO here?
Answer: The activity coefficient was 32 ± 10.

Question: With Ic1ccccc1 [iodobenzene] + OCCO as the compound, how does the activity coefficient read?
Answer: Its activity coefficient is 42 ± 10.

Question: Which activity coefficient does the source give for c1ccc2ccccc2c1 [naphthalene] + OCCO here?
Answer: The activity coefficient was 238 ± 51.

Question: For Cc1ccccc1 [toluene] + OCCO, which activity coefficient is on record?
Answer: The activity coefficient was 93 ± 12.
